Several values for one entry are separate records, joined by “and”; a condition that tells them apart may be missing. Identical values can stand only once.
tested on: Vero TMPRSS2 cells; test: Cytotoxicity at single concentration, CellTiter-Glo ATP quantitation; type: cell-based, African Green Monkey; conditions: 50 uM, 72 hours
Protocol: Cytotoxicity assays were conducted to measure toxicity of compounds at single concentration in Vero TMPRSS2 cells by using quantitation of ATP to indicate metabolically active cells. Vero cells (derived from African Green Monkey kidney epithelial tissue) were grown in Dulbecco's Modified Eagle Medium (DMEM) supplemented with 10% fetal bovine serum (FBS), 10 mM HEPES buffered saline, and 2 mM L-glutamine. 5,000 cells per well were seeded into a 96-well plate containing two-fold titrations of compounds. The concentration of DMSO was maintained at 0.5% for all wells to avoid toxicity. The plates were incubated for 72 hours, at which point they were acclimatized to room temperature for 30 minutes. 25 μL of the substrate/buffer solution from the Promega CellTiter-Glo Luminescent Cell Viability Assay kit was added to each well. The plates were shaken at a low orbital speed for 3 minutes and let rest at room temperature for 10 minutes, after which luminescence was measured using a BioTek Synergy H1 Microplate Reader H1M. The positive control was defined as wells containing cells without compounds.
Percent viability was calculated as follows: […]

Structure (SMILES) | % Cell Viability Average | % Cell Viability Replicate 1 | % Cell Viability Replicate 2
CO[C@H]1[C@H](O[C@H]([C@H]2O[C@@H](n3ccc(=O)[nH]c3=O)[C@H](O)[C@@H]2O)[C@H](NCCCNC(=O)[C@H](CC(C)C)NC(=O)[C@@H](NC(=O)N[C@H](C(=O)O)C(C)C)[C@@H]2CCN=C(N)N2)C(=O)O)O[C@H](CN)[C@H]1O [Muraymycin D1, reference compound] | 92.38% and 91.22% and 89.63% | 93.83% and 94.27% and 87.87% | 90.92% and 88.18% and 91.39%
CCC(CC)COC(=O)[C@H](C)N[P@](=O)(OC[C@H]1O[C@@](C#N)(c2ccc3c(N)ncnn23)[C@H](O)[C@@H]1O)Oc1ccccc1 [remdesivir, reference compound] | 94.25% and 93.47% and 89.22% | 94.32% and 91.48% and 89.25% | 94.19% and 95.46% and 89.19%

same assay, conditions: 100 uM, 72 hours

Structure (SMILES) | % Cell Viability Average [%] | % Cell Viability Replicate 1 [%] | % Cell Viability Replicate 2 [%]
CCCCCCC#Cc1cncc(-c2nnc(SCc3cccc([N+](=O)[O-])c3)n2C)c1 | 26.47 | 26.28 | 26.66
CCCCCCC#Cc1cncc(-c2nnc(SCCCn3ccc(=O)[nH]c3=O)n2C)c1 | 14.14 | 9.07 | 19.21
CCCCCCC#Cc1cncc(-c2nnc(SC[C@H]3O[C@@H](n4ccc(=O)[nH]c4=O)[C@@H]4OC(C)(C)O[C@@H]43)n2C)c1 | 1.10 | 1.02 | 1.19
CCCCCCC#Cc1cncc(-c2nnc(S)n2C)c1 | 0.76 | 0.70 | 0.82
CCCCCCC#Cc1cncc(-c2nnc(SCc3ccc(C(F)(F)F)cc3)n2C)c1 [drawing 96] | 70.35 | 74.34 | 66.36
CCCCCCC#Cc1cncc(-c2nnc(SCc3ccc(C#N)cc3)n2C)c1 [drawing 98] | 66.33 | 75.34 | 57.31
CCCCCCC#Cc1cncc(-c2nnc(SCc3ccc(OC)cc3)n2C)c1 [drawing 99] | 54.63 | 60.30 | 48.95
CCCCCCC#Cc1cncc(-c2nnc(SCc3ccc(Cl)cc3)n2C)c1 [drawing 100] | 54.05 | 53.54 | 54.56
CCCCCCC#Cc1cncc(-c2nnc(SCc3ccc(Cl)cc3)n2C)c1 [drawing 102] | 42.78 | 47.04 | 38.53
CCCCCCC#Cc1cncc(-c2nnc(SCc3ccc(Br)cc3)n2C)c1 [drawing 103] | 42.17 | 42.94 | 41.40
CCCCCCC#Cc1cncc(-c2nnc(SCc3ccc([N+](=O)[O-])cc3)n2C)c1 [drawing 106] | 34.59 | 39.61 | 29.56
CCCCCCC#Cc1cncc(-c2nnc(SCc3ccc(Cl)cc3)n2C2CC2)c1 [drawing 107] | 33.69 | 32.40 | 34.99
CCCCCCC#Cc1cncc(-c2nnc(SCc3ccc(C)cc3)n2C)c1 [drawing 109] | 20.46 | 20.58 | 20.35
CCCCCCC#Cc1cncc(-c2nnc(SCc3ccc(F)cc3)n2C)c1 [drawing 110] | 19.61 | 32.71 | 6.50
CCCCCCC#Cc1cncc(-c2nnc(SCc3ccc(Cl)c(Cl)c3)n2C)c1 [drawing 111] | 18.98 | 19.98 | 17.98
C#Cc1cncc(-c2nnc(SCc3ccc(Cl)cc3)n2C)c1 [drawing 113] | 3.10 | 3.02 | 3.18
CCCCCCC#Cc1cncc(-c2nnc(SCc3ccc(Cl)cc3)n2C)c1 [drawing 114] | 2.36 | 2.25 | 2.47
CCCCCCC#Cc1cccc(-c2nnc(SCc3ccc(Cl)cc3)n2C)c1 [drawing 115] | 1.77 | 1.97 | 1.58
CCCCCCC#Cc1cncc(-c2nnc(SCc3ccc(Cl)cc3)n2C)c1 [drawing 116] | 1.67 | 1.57 | 1.76
CCCCCCC#Cc1cncc(-c2nnc(SCc3ccc(Cl)cc3)n2C)c1 [drawing 117] | 1.56 | 1.41 | 1.70
CCCCCCC#Cc1cncc(-c2nnc(SCc3ccc([N+](=O)[O-])o3)n2C)c1 [drawing 120] | 1.31 | 1.30 | 1.31
CCCCCCC#Cc1cncc(-c2nnc(SCCn3c([N+](=O)[O-])cnc3C)n2C)c1 [drawing 121] | 1.19 | 1.17 | 1.20

same assay, conditions: 125 uM, 72 hours

Structure (SMILES) | % Cell Viability Average [%] | % Cell Viability Replicate 1 [%] | % Cell Viability Replicate 2 [%]
CCCCCCC#Cc1cncc(C(=O)NN)c1 | 36.66 | 34.62 | 38.69
CCCCCCC#Cc1cncc(-c2nnc(SCc3ccc(Cl)cc3)[nH]2)c1 [drawing 97] | 67.98 | 68.39 | 67.58
CCCCCCC#Cc1cncc(-c2nnc(SCc3ccc(Cl)c(F)c3)n2C)c1 [drawing 101] | 50.78 | 49.91 | 51.65
CCCCCCC#Cc1cncc(-c2nnc(SCc3cc([N+](=O)[O-])cc([N+](=O)[O-])c3)n2C)c1 [drawing 104] | 41.70 | 42.56 | 40.84
CCCCCCC#Cc1cncc(-c2nnc(SCc3cccc(Cl)c3)n2C)c1 [drawing 118] | 1.53 | 2.13 | 0.94
CCCCCCC#Cc1cncc(-c2nnc(SCc3ccc(Cl)cc3)[nH]2)c1 [drawing 119] | 1.41 | 1.43 | 1.38
CCCCCCC#Cc1cncc(-c2nnc(SCc3cc(F)cc(F)c3)n2C)c1 [drawing 123] | 0.96 | 0.98 | 0.94

same assay, conditions: 72 hours

Structure (SMILES) | % Cell Viability Average | % Cell Viability Replicate 1 | % Cell Viability Replicate 2
[H]/N=C(/N)N[C@H]1[C@H](O)[C@@H](O)[C@H](O[C@@H]2O[C@@H](C)[C@](O)(C=O)[C@H]2O[C@@H]2O[C@@H](CO)[C@H](O)[C@@H](O)[C@@H]2NC)[C@@H](N/C(N)=N\[H])[C@@H]1O [Streptomycin, reference compound] | 110.98% and 106.86% and 105.48% | 112.83% and 110.01% and 108.58% | 109.14% and 103.70% and 102.37%

From patent US20250136574A1, “SELECTIVE AGENTS TARGETING MYCOBACTERIUM TUBERCULOSIS” (priority 2022, published 2025)
